Legend:
[1] = biological target: T1, 5-hydroxytryptamine receptor 1D (Homo sapiens, UniProt P28221); experiment: Intrinsic activity at human recombinant 5HT1D receptor expressed in CHO cells by [35S]GTP-gamma-S binding assay relative to 5-hydroxytryptamine; assay type: functional, cell-based
[2] = biological target: T2, 5-hydroxytryptamine receptor 1B (Homo sapiens, UniProt P28222); experiment: Intrinsic activity at human recombinant 5HT1B receptor expressed in CHO cells by [35S]GTP-gamma-S binding assay relative to 5-hydroxytryptamine; assay type: functional, cell-based
T2 sequence (P28222 whole entry): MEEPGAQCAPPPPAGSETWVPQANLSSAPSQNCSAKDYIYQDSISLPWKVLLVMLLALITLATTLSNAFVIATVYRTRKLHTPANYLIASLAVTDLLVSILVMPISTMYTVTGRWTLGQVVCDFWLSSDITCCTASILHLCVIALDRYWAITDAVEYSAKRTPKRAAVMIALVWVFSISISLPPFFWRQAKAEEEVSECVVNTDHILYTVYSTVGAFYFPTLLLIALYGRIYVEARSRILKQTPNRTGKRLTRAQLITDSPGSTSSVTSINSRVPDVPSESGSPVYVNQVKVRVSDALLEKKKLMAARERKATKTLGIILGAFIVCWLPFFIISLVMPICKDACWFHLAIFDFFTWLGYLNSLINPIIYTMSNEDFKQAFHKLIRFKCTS

[3] = biological target: T2, 5-hydroxytryptamine receptor 1B; experiment: Displacement of [3H]5-HT from human recombinant 5HT1B receptor expressed in CHO cells; assay type: cell-based
Cytochrome P450 1A2 = biological target: T3, Cytochrome P450 1A2 (Homo sapiens, UniProt P05177); experiment: Inhibition of CYP1A2; assay type: ADME
T3 sequence (P05177 whole entry): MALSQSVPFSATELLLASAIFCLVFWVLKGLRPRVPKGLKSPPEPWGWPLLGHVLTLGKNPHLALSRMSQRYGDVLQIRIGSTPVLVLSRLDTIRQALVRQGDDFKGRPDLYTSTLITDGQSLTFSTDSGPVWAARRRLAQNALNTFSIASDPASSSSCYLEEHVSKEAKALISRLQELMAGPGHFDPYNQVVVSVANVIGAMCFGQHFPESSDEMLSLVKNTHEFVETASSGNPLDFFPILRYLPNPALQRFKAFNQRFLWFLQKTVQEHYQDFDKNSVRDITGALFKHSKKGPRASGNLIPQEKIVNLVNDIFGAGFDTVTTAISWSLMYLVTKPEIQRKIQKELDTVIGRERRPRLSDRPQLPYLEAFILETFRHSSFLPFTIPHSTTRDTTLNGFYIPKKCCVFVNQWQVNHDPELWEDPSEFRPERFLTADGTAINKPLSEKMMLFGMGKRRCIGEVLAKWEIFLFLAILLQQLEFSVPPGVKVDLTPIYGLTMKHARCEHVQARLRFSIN

[4] = Ratio of drug level in brain to blood in rat at 3 mg/kg, po; assay type: ADME, organism-based; set-up: dose 3 mg/kg, route oral
[5] = biological target: T4, 5-hydroxytryptamine receptor 1A (Homo sapiens) (UniProt P08908); experiment: Intrinsic activity at human recombinant 5HT1A receptor expressed in CHO cells by [35S]GTP-gamma-S binding assay relative to 5-hydroxytryptamine; assay type: functional, cell-based
T4 sequence (whole entry): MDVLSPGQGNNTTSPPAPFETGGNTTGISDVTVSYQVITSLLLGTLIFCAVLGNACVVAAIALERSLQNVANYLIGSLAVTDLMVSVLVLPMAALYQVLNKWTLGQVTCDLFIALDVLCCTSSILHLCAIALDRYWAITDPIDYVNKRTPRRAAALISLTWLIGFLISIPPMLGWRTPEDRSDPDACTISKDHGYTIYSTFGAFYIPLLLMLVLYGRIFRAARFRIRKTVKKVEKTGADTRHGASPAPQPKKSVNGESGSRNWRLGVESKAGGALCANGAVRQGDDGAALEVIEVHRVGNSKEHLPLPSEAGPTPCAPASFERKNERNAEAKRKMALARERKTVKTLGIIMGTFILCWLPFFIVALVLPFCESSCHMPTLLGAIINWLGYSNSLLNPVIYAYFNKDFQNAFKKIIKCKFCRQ

Cytochrome P450 2D6 = Cytochrome P450 2D6 (Homo sapiens, UniProt P10635); experiment: Inhibition of CYP2D6; assay type: ADME
Chain of Cytochrome P450 2D6 (P10635 whole entry): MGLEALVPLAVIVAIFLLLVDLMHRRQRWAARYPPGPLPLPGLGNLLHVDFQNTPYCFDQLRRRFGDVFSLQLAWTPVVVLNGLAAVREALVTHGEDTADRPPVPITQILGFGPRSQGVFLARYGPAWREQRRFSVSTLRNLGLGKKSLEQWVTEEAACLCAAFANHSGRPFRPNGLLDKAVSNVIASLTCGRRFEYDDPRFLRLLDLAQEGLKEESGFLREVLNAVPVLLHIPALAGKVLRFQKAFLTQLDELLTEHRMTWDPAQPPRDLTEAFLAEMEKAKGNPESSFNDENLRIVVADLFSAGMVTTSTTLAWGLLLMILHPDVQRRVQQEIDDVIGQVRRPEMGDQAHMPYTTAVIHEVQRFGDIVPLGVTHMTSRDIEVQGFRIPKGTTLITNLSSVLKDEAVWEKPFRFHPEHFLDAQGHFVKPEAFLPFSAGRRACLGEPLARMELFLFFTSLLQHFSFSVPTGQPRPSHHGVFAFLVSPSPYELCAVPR

[6] = biological target: T5, 5-hydroxytryptamine receptor 1A (Homo sapiens, UniProt P08908); experiment: Displacement of [3H]WAY 100635 from human recombinant 5HT1A receptor expressed in CHO cells; assay type: cell-based
T5 sequence (P08908 whole entry): T4 sequence (whole entry)

[7] = biological target: T1, 5-hydroxytryptamine receptor 1D; experiment: Displacement of [3H]5-HT from human recombinant 5HT1D receptor expressed in CHO cells; assay type: cell-based
[8] = Clearance in rat blood at 1 mg/kg, iv; assay type: ADME, organism-based; set-up: dose 1 mg/kg, route intravenous
[9] = biological target: Sodium-dependent serotonin transporter (Rattus norvegicus, UniProt P31652)
Chain of Sodium-dependent serotonin transporter (P31652 whole entry): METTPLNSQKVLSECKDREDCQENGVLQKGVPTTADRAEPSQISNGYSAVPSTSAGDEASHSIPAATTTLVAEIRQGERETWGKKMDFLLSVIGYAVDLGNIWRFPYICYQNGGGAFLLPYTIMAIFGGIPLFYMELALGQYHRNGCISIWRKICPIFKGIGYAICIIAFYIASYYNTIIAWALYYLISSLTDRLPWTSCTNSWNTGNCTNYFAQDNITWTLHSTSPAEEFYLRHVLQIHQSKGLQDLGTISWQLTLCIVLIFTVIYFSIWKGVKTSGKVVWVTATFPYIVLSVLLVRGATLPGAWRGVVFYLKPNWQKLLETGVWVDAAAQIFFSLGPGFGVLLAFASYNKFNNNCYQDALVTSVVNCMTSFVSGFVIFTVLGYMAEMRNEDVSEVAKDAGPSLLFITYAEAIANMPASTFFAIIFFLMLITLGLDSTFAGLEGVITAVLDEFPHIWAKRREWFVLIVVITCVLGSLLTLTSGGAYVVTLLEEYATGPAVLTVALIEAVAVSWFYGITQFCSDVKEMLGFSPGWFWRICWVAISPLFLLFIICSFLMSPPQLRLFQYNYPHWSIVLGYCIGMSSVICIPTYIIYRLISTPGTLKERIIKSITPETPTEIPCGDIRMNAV
Description: Inhibition of [3H]5-HT uptake at SERT in rat cortical synaptosomes

Cytochrome P450 2C19 = Cytochrome P450 2C19 (Homo sapiens, UniProt P33261); experiment: Inhibition of CYP2C19; assay type: ADME
Chain of Cytochrome P450 2C19 (P33261 whole entry): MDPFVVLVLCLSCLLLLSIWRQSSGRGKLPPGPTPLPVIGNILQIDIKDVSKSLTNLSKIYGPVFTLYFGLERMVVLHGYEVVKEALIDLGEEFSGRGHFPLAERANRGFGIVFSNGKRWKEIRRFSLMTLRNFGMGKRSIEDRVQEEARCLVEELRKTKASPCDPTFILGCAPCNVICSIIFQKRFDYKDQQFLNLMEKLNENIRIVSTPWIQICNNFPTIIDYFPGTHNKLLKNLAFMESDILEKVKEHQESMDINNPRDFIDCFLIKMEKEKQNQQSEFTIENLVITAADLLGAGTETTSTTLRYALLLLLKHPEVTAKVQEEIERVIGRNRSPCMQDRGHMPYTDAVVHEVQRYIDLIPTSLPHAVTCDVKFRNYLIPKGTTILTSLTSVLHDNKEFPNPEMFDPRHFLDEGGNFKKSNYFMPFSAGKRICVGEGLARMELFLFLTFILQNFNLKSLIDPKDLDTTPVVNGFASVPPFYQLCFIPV

Cytochrome P450 2C9 = Cytochrome P450 2C9 (Homo sapiens, UniProt P11712); experiment: Inhibition of CYP2C9; assay type: ADME
Chain of Cytochrome P450 2C9 (P11712 whole entry): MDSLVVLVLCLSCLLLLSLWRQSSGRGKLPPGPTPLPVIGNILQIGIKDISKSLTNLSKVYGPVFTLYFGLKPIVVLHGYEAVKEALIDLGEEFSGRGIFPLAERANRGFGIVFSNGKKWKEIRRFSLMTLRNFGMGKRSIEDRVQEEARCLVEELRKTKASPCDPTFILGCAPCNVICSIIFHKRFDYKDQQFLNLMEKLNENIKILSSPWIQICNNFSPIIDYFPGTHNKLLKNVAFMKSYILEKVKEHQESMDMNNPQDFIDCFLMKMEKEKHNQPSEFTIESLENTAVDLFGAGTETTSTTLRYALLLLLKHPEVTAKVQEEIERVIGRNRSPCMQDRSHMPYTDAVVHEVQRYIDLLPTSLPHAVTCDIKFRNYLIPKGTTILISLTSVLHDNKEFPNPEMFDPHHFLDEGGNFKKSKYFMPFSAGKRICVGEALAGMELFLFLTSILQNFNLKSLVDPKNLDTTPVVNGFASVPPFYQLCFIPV

Cytochrome P450 3A4 = Cytochrome P450 3A4 (Homo sapiens, UniProt P08684); experiment: Inhibition of CYP3A4; assay type: ADME
Chain of Cytochrome P450 3A4 (P08684 whole entry): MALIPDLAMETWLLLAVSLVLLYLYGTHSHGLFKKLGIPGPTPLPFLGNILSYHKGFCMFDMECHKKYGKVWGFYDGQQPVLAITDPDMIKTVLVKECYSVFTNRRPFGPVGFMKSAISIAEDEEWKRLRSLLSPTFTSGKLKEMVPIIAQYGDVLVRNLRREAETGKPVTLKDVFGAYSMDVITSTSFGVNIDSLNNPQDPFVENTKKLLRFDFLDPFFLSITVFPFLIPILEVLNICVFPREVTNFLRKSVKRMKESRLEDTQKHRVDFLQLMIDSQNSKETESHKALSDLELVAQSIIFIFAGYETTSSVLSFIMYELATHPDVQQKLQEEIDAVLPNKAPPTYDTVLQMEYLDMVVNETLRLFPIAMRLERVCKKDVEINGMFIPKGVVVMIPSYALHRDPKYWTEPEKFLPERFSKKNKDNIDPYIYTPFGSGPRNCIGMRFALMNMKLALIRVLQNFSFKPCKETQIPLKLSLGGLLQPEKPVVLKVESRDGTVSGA

[10] = Half life in rat at 1 mg/kg, iv; assay type: ADME, organism-based; set-up: dose 1 mg/kg, route intravenous; conditions: in vivo
[11] = biological target: T5, 5-hydroxytryptamine receptor 1A; experiment: Displacement of [3H]-WAY100635 from human recombinant 5HT1A receptor expressed in CHO cells
[12] = Selectivity for human recombinant 5HT1D receptor over rat cortical SERT
Liver microsomes [13] = experiment: Metabolic stability assessed as intrinsic clearance in human liver microsomes; assay type: ADME, Microsome
[14] = Volume of distribution at steady state in rat at 1 mg/kg, iv; assay type: ADME, organism-based; set-up: dose 1 mg/kg, route intravenous; conditions: in vivo, read-out: Vdss
Liver microsomes [15] = experiment: Metabolic stability assessed as intrinsic clearance in rat liver microsomes; assay type: ADME, Microsome
[16] = Selectivity for human recombinant 5HT1B receptor over rat cortical SERT
[17] = Selectivity for human recombinant 5HT1A receptor over rat cortical SERT
[18] = Oral bioavailability in rat at 3 mg/kg; assay type: ADME, organism-based; conditions: in vivo

T1 sequence (P28221 whole entry): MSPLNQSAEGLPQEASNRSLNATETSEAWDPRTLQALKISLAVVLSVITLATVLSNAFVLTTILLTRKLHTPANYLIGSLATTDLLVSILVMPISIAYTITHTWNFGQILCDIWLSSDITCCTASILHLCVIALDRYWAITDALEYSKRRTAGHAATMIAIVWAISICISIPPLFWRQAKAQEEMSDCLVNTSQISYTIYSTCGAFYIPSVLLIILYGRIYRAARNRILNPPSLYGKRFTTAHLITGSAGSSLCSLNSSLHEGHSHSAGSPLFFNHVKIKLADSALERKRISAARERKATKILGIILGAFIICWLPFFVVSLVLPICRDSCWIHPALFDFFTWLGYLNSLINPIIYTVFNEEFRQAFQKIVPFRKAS

Structure (SMILES)	Intrinsic activity [1]	Intrinsic activity [2]	Ki [3]	IC50 (Cytochrome P450 1A2)	Intrinsic activity [5]	IC50 (Cytochrome P450 2D6)	Ki [6]	Ki [7]	clearance [8]	Ki [9]	IC50 (Cytochrome P450 2C19)	IC50 (Cytochrome P450 2C9)	IC50 (Cytochrome P450 3A4)	half-life [10]	Ki [11]	other results
COc1ccc(NC(=O)c2ccc(-c3ccc(-c4noc(C)n4)cc3C)cc2)cc1N1CCN(C)CC1	0.8	0.3	–	–	–	–	–	–	–	–	–	–	–	–	–	–
Cc1ccc2c(OCCN3CCC(Cc4ccc5c(c4)N(C(C)C)C(=O)CO5)CC3)cccc2n1	–	0.6	39.8 nM	–	0	–	5.01 nM	3.98 nM	–	100 nM	–	–	–	–	0.631 nM	–
Cc1ccc2c(OCCN3CCN(Cc4ccc5c(c4)N(CC(C)C)C(=O)CO5)CC3)cccc2n1	–	–	31.6 nM	–	–	–	–	2.51 nM	–	1580 nM	–	–	–	–	2 nM	–
Cc1ccc2c(OCCN3CCC(Cc4ccc5c(c4)NC(=O)CO5)CC3)cccc2n1	0.5	0.5	–	–	0.1	–	–	–	50 mL/min/kg	–	–	–	–	1.3 h	–	CL (Liver microsomes [13]): 1.2 mL/min/g; bioavailability [18]: 40%; Vd [14]: 4.4 L/kg; CL (Liver microsomes [15]): 3.4 mL/min/g
CCCCN1C(=O)COc2ccc(CN3CCN(CCOc4cccc5nc(C)ccc45)CC3)cc21	–	–	31.6 nM	4000 nM	–	–	–	3.16 nM	–	158 nM	16000 nM	12000 nM	–	–	1.26 nM	–
CCCN1C(=O)COc2ccc(CN3CCN(CCOc4cccc5nc(C)ccc45)CC3)cc21	0.5	0.4	31.6 nM	–	0.1	–	25.1 nM	2 nM	–	158 nM	–	18000 nM	–	–	0.251 nM	–
Cc1ccc2c(OCCN3CCN(Cc4ccc5c(c4)NC(=O)CO5)CC3)cccc2n1	–	0.6	100 nM	–	0	–	63.1 nM	10 nM	–	25.1 nM	–	–	–	–	1.58 nM	–
CCN1C(=O)COc2ccc(CN3CCN(CCOc4cccc5nc(C)ccc45)CC3)cc21	0.3	0.4	25.1 nM	18000 nM	0.1	–	39.8 nM	1 nM	–	2000 nM	–	14000 nM	–	–	1.26 nM	–
Cc1ccc2c(OCCN3CCN(Cc4ccc5c(c4)N(Cc4ccccc4)C(=O)CO5)CC3)cccc2n1	–	–	63.1 nM	11000 nM	–	15000 nM	–	6.31 nM	–	316 nM	11000 nM	7000 nM	12000 nM	–	3.98 nM	–

Further lines, with some results ahead:

Intrinsic activity [1]	Intrinsic activity [2]	Ki [3]	IC50 (Cytochrome P450 1A2)	Intrinsic activity [5]	IC50 (Cytochrome P450 2D6)	Ki [6]	Ki [7]	clearance [8]	Ki [9]	IC50 (Cytochrome P450 2C19)	IC50 (Cytochrome P450 2C9)	IC50 (Cytochrome P450 3A4)	half-life [10]	Ki [11]	Structure (SMILES)	other results
0.6	0.7	0.2 nM	> 19000 nM	0	> 19000 nM	7.94 nM	0.398 nM	14 mL/min/kg	50.1 nM	> 19000 nM	> 19000 nM	> 19000 nM	1.3 h	–	Cc1ccc2c(OCCN3CCN(Cc4cc(F)c5c(c4)N(C)C(=O)CO5)CC3)cccc2n1	Kp [4]: 3.6
–	–	25.1 nM	17000 nM	–	14000 nM	31.6 nM	2 nM	–	–	5000 nM	4000 nM	9000 nM	–	1.26 nM	Cc1ccc2c(OCCN3CCN(Cc4ccc5c(c4)N(CCc4ccccc4)C(=O)CO5)CC3)cccc2n1	–
0.6	0.4	3.98 nM	–	0.1	–	3.16 nM	1.58 nM	31 mL/min/kg	126 nM	–	–	–	1.6 h	0.251 nM	CCN1C(=O)COc2ccc(CC3CCN(CCOc4cccc5nc(C)ccc45)CC3)cc21	Ratio pKi [12]: 30; CL (Liver microsomes [13]): 2.8 mL/min/g; Vd [14]: 2.5 L/kg; CL (Liver microsomes [15]): 7.7 mL/min/g; Ratio pKi [16]: 30; Ratio pKi [17]: 30
0.6	0.4	1.58 nM	> 16000 nM	0	> 16000 nM	3.16 nM	0.501 nM	34 mL/min/kg	79.4 nM	> 16000 nM	> 16000 nM	> 16000 nM	2 h	–	Cc1ccc2c(OCCN3CCN(Cc4ccc5c(c4F)N(C)C(=O)CO5)CC3)cccc2n1	Kp [4]: 2.7; bioavailability [18]: 65%
–	0.8	7.94 nM	> 20000 nM	0	> 20000 nM	10 nM	0.501 nM	–	100 nM	> 20000 nM	> 20000 nM	> 20000 nM	–	1.58 nM	Cc1ccc2c(OCCN3CCN(Cc4ccc5c(c4)N(C)C(=O)CO5)CC3)cccc2n1	–
0.7	0.5	1.58 nM	> 9000 nM	0.1	> 9000 nM	2.51 nM	1.26 nM	23 mL/min/kg	200 nM	> 9000 nM	> 9000 nM	> 9000 nM	2.8 h	–	CCN1C(=O)COc2ccc(CN3CCN(CCOc4cccc5nc(C)ccc45)CC3)c(F)c21	Kp [4]: 1.2; bioavailability [18]: 34%

Source: ChEMBL document CHEMBL1139760, “Studies on a series of potent, orally bioavailable, 5-HT(1) receptor ligands” (Bioorg Med Chem Lett, 2007)
